From patent US20250241974A1, “COMPOSITIONS AND METHODS FOR WOUND HEALING” (University of Maine System Board of Trustees, priority 2024, published 2025)

Test system: excision wounds
Assay: Wound healing assay with CNF hydrogel formulation (Example IV)
Assay type: in vivo
Conditions: citric acid as cross-linking agent

O=C(O)CC(O)(CC(=O)O)C(=O)O [citric acid]
effect on all parameters studied: does not have any effect
